Data from article PMC7577125 (Antimicrobial Agents and Chemotherapy, 2020).
Several values for one entry are separate records, joined by “and”; a condition that tells them apart may be missing. Identical values can stand only once.

Key:
[1] = test system: HBV; assay: De novo infection models (HepG2-NTCP and PHH), summary; assay type: cell-based, Hepatitis B virus; conditions: Hepatitis B virus; range over two de novo infection models; read-out: EC50, suppression of cccDNA formation
[2] = test system: HBV cccDNA; assay: cccDNA formation assay in infected HepG2-NTCP cells (Southern blot); assay type: cell-based; conditions: Hepatitis B virus, 96 h, 4 days, read-out: cccDNA % of Control
[3] = test system: HBV genotype C; assay: microbe, parasite or virus in culture; assay type: cell-based; conditions: Hepatitis B virus, read-out: Mean antiviral EC50
[4] = test system: HBV genotypes A, B, C, and D; assay: microbe, parasite or virus in culture; assay type: cell-based; conditions: Hepatitis B virus, read-out: VR EC50s
[5] = test system: HBV Cp D29G; assay: microbe, parasite or virus in culture; assay type: cell-based, Hepatitis B virus
[6] = test system: HBV Cp T33N; assay: microbe, parasite or virus in culture; assay type: cell-based, Hepatitis B virus
[7] = test system: HBV Cp Y38C; assay: microbe, parasite or virus in culture; assay type: cell-based, Hepatitis B virus
[8] = test system: HBV Cp Y38F; assay: microbe, parasite or virus in culture; assay type: cell-based, Hepatitis B virus
[9] = test system: HBV Cp I105L; assay: microbe, parasite or virus in culture; assay type: cell-based, Hepatitis B virus
[10] = test system: HBV Cp I105T; assay: microbe, parasite or virus in culture; assay type: cell-based, Hepatitis B virus
[11] = test system: HBV Cp T109M; assay: microbe, parasite or virus in culture; assay type: cell-based, Hepatitis B virus
[12] = test system: HBV; assay: Dose response of ETV and ABI-H0731 alone and in combination in induced HepAD38 cells; assay type: cell-based, Hepatitis B virus
Protocol: Viral replication was evaluated by quantifying the levels of total HBV DNA in the cells by qPCR. […] In both cases, the data are plotted as a function of each drug’s concentration relative to its VR EC50.

[13] = molecular target: T1, CYP2C9 (Homo sapiens, UniProt P11712); assay: CYP inhibition in human liver microsomes, 2C9; assay type: in vitro ADME; conditions: 0.1–100 μM
T1 construct: in human liver microsomes; from tissue; host or cells: human liver microsomes
T1 sequence (P11712 whole entry): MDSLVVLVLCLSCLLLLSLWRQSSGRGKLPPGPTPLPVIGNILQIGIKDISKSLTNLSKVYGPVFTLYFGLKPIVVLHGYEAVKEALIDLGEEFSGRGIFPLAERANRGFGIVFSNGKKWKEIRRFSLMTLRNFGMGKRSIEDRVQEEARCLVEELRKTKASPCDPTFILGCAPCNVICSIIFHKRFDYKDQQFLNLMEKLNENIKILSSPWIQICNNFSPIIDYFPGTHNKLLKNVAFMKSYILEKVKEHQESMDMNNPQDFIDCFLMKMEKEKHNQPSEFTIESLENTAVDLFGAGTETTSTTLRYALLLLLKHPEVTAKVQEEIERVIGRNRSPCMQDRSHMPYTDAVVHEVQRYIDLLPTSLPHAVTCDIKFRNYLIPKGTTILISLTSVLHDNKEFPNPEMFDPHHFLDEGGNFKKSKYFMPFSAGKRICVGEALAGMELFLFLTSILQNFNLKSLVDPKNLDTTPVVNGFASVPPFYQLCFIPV

[14] = molecular target: T2, CYP2D6 (Homo sapiens, UniProt P10635); assay: CYP inhibition in human liver microsomes, 2D6; assay type: in vitro ADME; conditions: 0.1–100 μM
T2 construct: in human liver microsomes; from tissue; host or cells: human liver microsomes
T2 sequence (P10635 whole entry): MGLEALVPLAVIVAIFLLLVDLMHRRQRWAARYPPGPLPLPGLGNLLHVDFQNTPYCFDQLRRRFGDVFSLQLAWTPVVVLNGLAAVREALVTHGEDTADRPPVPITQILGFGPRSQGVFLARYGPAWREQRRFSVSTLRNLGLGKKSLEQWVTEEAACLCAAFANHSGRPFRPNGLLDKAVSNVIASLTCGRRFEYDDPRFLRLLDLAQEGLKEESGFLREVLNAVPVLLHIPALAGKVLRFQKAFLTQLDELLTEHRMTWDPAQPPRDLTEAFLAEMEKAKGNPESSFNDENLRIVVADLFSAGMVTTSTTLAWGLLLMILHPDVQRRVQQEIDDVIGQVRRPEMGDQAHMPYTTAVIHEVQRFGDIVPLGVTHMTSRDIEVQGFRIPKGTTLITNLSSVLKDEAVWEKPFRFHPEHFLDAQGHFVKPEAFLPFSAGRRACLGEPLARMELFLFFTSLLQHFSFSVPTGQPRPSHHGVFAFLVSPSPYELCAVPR

[15] = in vivo; conditions: male
Protocol: The same solution formulation was administered per os (p.o.) in the same species to determine oral bioavailability.
Pharmacokinetic studies were performed at Wuxi (Shanghai, China) for studies in male mouse, rat, and cynomolgus monkey and at Sai (Pune, India) for studies in male dog. For all oral studies, the formulation was administered in the fasted state (food removed at least 12 h prior to dosing) to groups of 3 per arm.

[16] = test system: Huh7, HepG2, HeLa H1A, HEK293, NCI-H226, MOLT-4, PBMC
[17] = test system: HBV; design: method as in PMID 31711752; conditions: HBeAg-negative patient, day 28 of monotherapy; cited from earlier work
[18] = in vitro; conditions: human
[19] = in vitro; conditions: human, plasma
[20] = test system: herpes simplex virus 1, human rhinovirus 16, influenza A virus; assay: Cell protection assays with 3 unrelated viruses; conditions: concentrations of up to 10 μM
[21] = molecular target: HBV Cp (3CA Cp150-BODIPY) (Hepatitis B virus genotype D subtype adw, UniProt P03147, C107A/C48A/C61A/R150C); assay: HBV Cp in vitro assembly assay (fluorescence quenching)
HBV Cp (3CA Cp150-BODIPY), sequence (P03147 1-150 C48A/C61A/C107A/R150C): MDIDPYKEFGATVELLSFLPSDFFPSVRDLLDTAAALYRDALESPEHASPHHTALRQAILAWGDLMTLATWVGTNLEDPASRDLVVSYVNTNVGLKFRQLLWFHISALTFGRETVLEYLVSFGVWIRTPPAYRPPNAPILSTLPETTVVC

[22] = test system: HBV; assay: HBV DNA replication in cell culture systems (HepAD38, HepG2-NTCP, PHHs), summary; conditions: Hepatitis B virus, HePAD38, read-out: EC50, inhibition of HBV DNA replication
Excerpt: The first is an HBV-inducible cell line (HepAD38) that bears a single “1.1 copy” of the HBV genome (genotype D, subtype ayw) under the control of a cytomegalovirus (CMV) tetracycline (Tet)-off promoter ([13]), and the second utilizes HBV infection of either a HepG2-derived cell line stably expressing the HBV entry receptor sodium taurocholate cotransporting polypeptide (NTCP) (HepG2-NTCP) or primary human hepatocytes (PHHs). The primary marker measured for inhibition of HBV replication in the cell culture systems is viral DNA.
HepAD38 cells were trypsinized and then washed three times with phosphate-buffered saline (PBS) to remove traces of Tet. Cells were seeded into 96-well plates in assay medium (DMEM–F-12 medium with 2% Tet-free FBS) and treated with compounds. Supernatants and cells were harvested at 5 days postinduction.
HepG2-NCTP cells were infected with purified HepAD38 virus at a multiplicity of infection (MOI) of 50 in infection medium (DMEM, 5% FBS, 2% DMSO, 5% PEG 8000). Following infection, HepG2-NTCP cells were washed twice and switched to HepG2-NTCP treatment medium (DMEM, 5% FBS). PHHs were infected with HBV at an MOI of 50 in infection medium and grown in PHH maintenance medium for the duration of the experiment. Compounds were added after infection. […] Intracellular HBV DNA and pgRNA were measured by branch DNA (bDNA) assays (Thermo Fisher).

[23] = Hepatitis B virus, Huh-7, read-out: Mean EC50
[24] = Sprague-Dawley, rat, iv, 1 mg/kg
[25] = Sprague-Dawley, rat, po, 2 mg/kg
[26] = cynomolgus monkey, iv, 0.5 mg/kg

O=C(NCc1cnc(C(F)(F)F)s1)c1ccc2c(c1)NC(=O)c1ccccc1S2(=O)=O [ABI-H0731]
EC50 [1]: 1840 to 7300 nM | activity at 0.04 µM ([2]; 0.04 μM): 89% | activity at 0.12 µM ([2]; 0.12 μM): 95% | activity at […] ([2]; 0.37 μM): 98% | activity at 1.11 µM ([2]; 1.11 μM): 94% | activity at 3.33 µM ([2]; 3.33 μM): 86% | activity at 10 µM ([2]; 10.0 μM): 30% | EC50 [3]: 88.2 ± 27 nM | EC50 [4]: 86 to 142 nM | Fold shift ([5]; D29G vs wild type): 20 fold | EC50 [5, 23]: 2960 nM | EC50 [6, 23]: 3060 nM | Fold shift ([6]; T33N vs wild type): 21 fold | EC50 [7, 23]: 224 ± 50 nM | Fold shift ([7]; Y38C vs wild type): 1.5 fold | EC50 [8, 23]: 481 ± 34 nM | Fold shift ([8]; Y38F vs wild type): 3.3 fold | EC50 [9, 23]: 41 ± 6 nM | Fold shift ([9]; I105L vs wild type): 0.3 fold | EC50 [10, 23]: 324 ± 20 nM | Fold shift ([10]; I105T vs wild type): 2.2 fold | EC50 [11, 23]: > 10000 nM | Fold shift ([11]; T109M vs wild type): >68 fold | HBV DNA levels ([12]; 60× VR EC50 (10 μM ABI-H0731), control 2.2 × 10^6): 2.1 × 10^3 copies/μl | inhibition of HBV DNA replication ([12]; 60× VR EC50 (10 μM)): ~3 logs | inhibition at 1.7 µM ([12]; Hepatitis B virus, HePAD38, 96 h, read-out: inhibition of HBV replication): 98% | IC50 [13]: 30700 nM | IC50 [14]: 29600 nM | Vd ([15]; CD-1 (mouse), Sprague-Dawley (rat), beagle (dog), cynomolgus monkey, iv): 1.56 to 4.06 L/kg | Tmax ([15]; CD-1 (mouse), Sprague-Dawley (rat), beagle (dog), cynomolgus monkey, po): 0.7 to 3.3 h | plasma clearance as % of liver blood flow ([15]; CD-1, mouse, iv): 9% | AUC(0-inf) ([15]; CD-1, mouse, iv, 1 mg/kg): 2070 ng·h/mL | T1/2 ([15]; CD-1, mouse, iv, 1 mg/kg): 3.55 h | Vd ([15]; CD-1, mouse, iv, 1 mg/kg): 2.16 L/kg | clearance ([15]; CD-1, mouse, iv, 1 mg/kg): 8.05 mL/min/kg | half-life ([15]; CD-1, mouse, iv, 1 mg/kg, T1/2): 3.6 h | AUC(0-inf) ([15]; CD-1, mouse, po, 5 mg/kg): 8690 ng·h/mL | Cmax ([15]; CD-1, mouse, po, 5 mg/kg): 1420 ng/mL | Tmax ([15]; CD-1, mouse, po, 5 mg/kg): 1 h | bioavailability ([15]; CD-1, mouse, po, 5 mg/kg): 84% | half-life ([15]; CD-1, mouse, po, 5 mg/kg, T1/2): 3.03 h | plasma clearance as % of liver blood flow ([15]; Sprague-Dawley, rat, iv): 16% | AUC(0-inf) [15, 24]: 1670 ng·h/mL | T1/2 [15, 24]: 4.92 h | Vd [15, 24]: 3.47 L/kg | clearance [15, 24]: 10.1 mL/min/kg | half-life ([15]; Sprague-Dawley, rat, iv, 1 mg/kg, T1/2): 4.9 h | AUC(0-inf) [15, 25]: 3160 ng·h/mL | Cmax [15, 25]: 324 ng/mL | Tmax [15, 25]: 1 h | bioavailability [15, 25]: 95% | half-life ([15]; Sprague-Dawley, rat, po, 2 mg/kg, T1/2): 6.13 h | plasma clearance as % of liver blood flow ([15]; beagle, dog, iv): 47% | AUC(0-inf) ([15]; beagle, dog, iv, 2 mg/kg): 2890 ng·h/mL | T1/2 ([15]; beagle, dog, iv, 2 mg/kg): 2.46 h | Vd ([15]; beagle, dog, iv, 2 mg/kg): 1.56 L/kg | clearance ([15]; beagle, dog, iv, 2 mg/kg): 14.7 mL/min/kg | half-life ([15]; beagle, dog, iv, 2 mg/kg, T1/2): 2.5 h | bioavailability ([15]; beagle, dog, po): 49% | AUC(0-inf) ([15]; beagle, dog, po, 3 mg/kg): 2150 ng·h/mL | Cmax ([15]; beagle, dog, po, 3 mg/kg): 861 ng/mL | Tmax ([15]; beagle, dog, po, 3 mg/kg): 0.667 h | half-life ([15]; beagle, dog, po, 3 mg/kg, T1/2): 3.34 h | plasma clearance as % of liver blood flow ([15]; cynomolgus monkey, iv): 11% | AUC(0-inf) [15, 26]: 1750 ng·h/mL | Vd [15, 26]: 4.06 L/kg | clearance [15, 26]: 4.86 mL/min/kg | half-life [15, 26]: 12.6 h | AUC(0-inf) ([15]; cynomolgus monkey, po, 2 mg/kg): 4340 ng·h/mL | Cmax ([15]; cynomolgus monkey, po, 2 mg/kg): 353 ng/mL | Tmax ([15]; cynomolgus monkey, po, 2 mg/kg): 3.33 h | bioavailability ([15]; cynomolgus monkey, po, 2 mg/kg): 55% | half-life ([15]; cynomolgus monkey, po, 2 mg/kg): 11.6 h | CC50 relative to VR EC50 [16]: > 50 fold | decline in viral load in a patient harboring T109M at baseline [17]: 1.0 log and 1 log | CC50 at 4 days [18]: > 10000 nM | fraction unbound at 6 h, 3 μM [19]: 0.031 | fraction unbound at 6 h, 10 μM [19]: 0.034 | fraction unbound at 6 h, 30 μM [19]: 0.024 | inhibitory activity against unrelated viruses [20]: no significant inhibitory activity | IC50 [21]: 267 nM | EC50 [22]: 173 to 307 nM
